Reference: PMC10508264, “Exploring the antioxidant, antimicrobial, cytotoxic and biothermodynamic properties of novel morpholine derivative bioactive Mn(II), Co(II) and Ni(II) complexes – combined experimental and theoretical measurements towards DNA/BSA/SARS-CoV-2 3CL^Pro” (RSC Medicinal Chemistry, 2023)
“And” between values parts separate entries of the source, which are not always exact repeats. Identical values can stand only once.

Columns and labels:
[1] = DPPH radical scavenging assay; format: biochemical; settings: for % Inhibition, DPPH: 517 nm
[2] = Hydroxyl radical scavenging assay; format: biochemical; settings: for % Inhibition, hydroxyl radical: 230 nm
BSA = BSA (Bos taurus, UniProt P02769); experiment: BSA fluorescence quenching titration; format: binding, bovine; settings: for Gibb's free energy change (SV method II), BSA: T = 298 K; for Kq (SV method I), BSA: τ0 = 10^−8 s; for P, ratio of fluorescence quantum efficiency, BSA: F/F0 vs 1/[BSA]
Procedure: Titrations were performed for all tested compounds (1–200 μM) with pre-incubated EB-bound DNA and the intensity variations between 510 nm and 610 nm were carefully monitored in the presence and absence of DNA (200 μM) during the initial emission and excitation by EB.[31]
Fluorescence emission spectral titration is an efficient approach to evaluating the binding properties of DNA/BSA biomolecules. In general, the fluorescence of EB is quite weak in aqueous solution, but when it is bound to DNA, the fluorescence intensity rises. However, it is a well-known imperative intercalator and is more supportive in distinguishing the binding strength of non-fluorescence test substances. Also, the fluorescence emission spectra of the EB–DNA adduct were examined at 610 nm in the absence and presence of rising quantities of each test compound. When the complex concentration (0–240 μM) rises, the fluorescence intensity of the EB-bound DNA complex diminishes owing to the displacement of EB from CT-DNA. A notable reduction in the fluorescence emission intensity at 610 nm is observed (Fig. S26 ^† and Table 4). The photoelectron shift from DNA's guanine base to the excited states may be the cause of the frequency quenching in the emission of the test substance by DNA. […] Therefore, the competitive binding experiment can make use of EB as a fluorescent probe. […] This is further evidence that complexes (1–3) strongly bind intercalatively with DNA. The observed results agree well with the data from electronic absorption spectral measurements. Additionally, the experiment was extended to examine the binding properties between the test substance and BSA. BSA mostly contains three amino acid residues (tyrosine, tryptophan, and phenylalanine), which give it its inherent fluorescence. […] These two residues also have minimal quenching effects. Tryptophan in BSA fluoresces mostly because of a residue that is trapped inside a hydrophobic cavity. Therefore, it is crucial to model potential binding interactions with the metal complexes. […] The fluorescence intensity also reduces while the test substances (1–3) are steadily blended with the BSA solution, proving that complexes (1–3) interact with BSA via altering the protein's secondary structure, which also leads to an alteration in the tryptophan environment of BSA (Fig. S27 ^†). Furthermore, BSA structural similarities share 76% sequence identity with human serum albumin (HSA), the most prevalent protein in blood plasma that transports ions and proteins to cells and tissues. HSA is able to readily crystallize under the trivalent cations, but BSA has no ready crystallizing property. However, they consist of parallel physicochemical properties to each other.[74,75] Additionally, the Stern–Volmer eqn (12) and (13) were employed to analyze the data (Fig. S28 ^† and Table 4). Additionally, the kq values for DNA and BSA binding were acquired in the range of 1.1636–2.8863 × 10^12 and 2.6390–7.0774 × 10^12 mol^−1 s^−1, respectively. They are also much greater than the collision quenching constant value (2.0 × 10^10 mol^−1 s^−1). Therefore, it is assumed that the static quenching process was brought on by adduct construction between the test compounds and BSA rather than a dynamic collision. However, fluorescence spectroscopy is generally plagued by the inner filter effect (IFE), disturbing spectral analysis. The energizing ray is attenuated due to the highly concentrated solution sample. As a result, strong fluorescence is only seen on surfaces facing the excitation beam.

[3] = test system: Salmonella enterica serovar typhi; experiment: Agar disc diffusion, strain B; format: cell-based; settings: for Diameter of clear zone inhibition: control 6 mm
Bacillus cereu = experiment: Agar disc diffusion, strain G; format: cell-based; set-up: Inhibition%: concentration or dose not given beside the values; settings: for Diameter of clear zone inhibition: control 6 mm
Shigella flexneri = experiment: Agar disc diffusion, strain E; format: cell-based; set-up: Inhibition%: concentration or dose not given beside the values; settings: for Diameter of clear zone inhibition: control 6 mm
HepG2 = experiment: MTT cell viability assay, HepG2; format: cell-based, human; settings: HepG2, 72 h of exposure

SMILES | % Inhibition, DPPH ([1]; 40 µM) [%] | % Inhibition, DPPH ([1]; 80 µM) [%] | % Inhibition, DPPH ([1]; 120 µM) [%] | % Inhibition, DPPH ([1]; 160 µM) [%] | % Inhibition, DPPH ([1]; 200 µM) [%] | % Inhibition, DPPH ([1]; 240 µM) | % Inhibition, hydroxyl radical ([2]; 40 µM) [%] | % Inhibition, hydroxyl radical ([2]; 80 µM) [%] | % Inhibition, hydroxyl radical ([2]; 120 µM) [%] | % Inhibition, hydroxyl radical ([2]; 160 µM) [%] | % Inhibition, hydroxyl radical ([2]; 200 µM) [%] | % Inhibition, hydroxyl radical ([2]; 240 µM) [%] | KSV (SV method I), BSA (BSA) [M⁻¹] | Kass (SV method II), BSA (BSA) [M⁻¹] | n, number of binding sites (SV method II), BSA (BSA) | Gibb's free energy change (SV method II), BSA (BSA) [kJ/M] | Kq (SV method I), BSA (BSA) [M⁻¹ s⁻¹] | P, ratio of fluorescence quantum efficiency, BSA (BSA) | Inhibition% [3] [%] | Diameter of clear zone inhibition [3] [mm] | further results
Oc1ccccc1N=Cc1ccc(N2CCOCC2)cc1 [(HL), 2-(4-morpholinobenzylideneamino)phenol] | 09.45 | 15.21 | 26.36 | 34.56 | 39.41 | 52.45% | 07.26 | 14.43 | 25.52 | 33.86 | 40.73 | 50.68 | 26390 | 10620 | 0.926 | -23.0 | 2.639e+12 | 0.464 | 33 | 09 | Inhibition% (Bacillus cereu): 33%; Diameter of clear zone inhibition (Bacillus cereu): 09 mm; Inhibition% (Shigella flexneri): 57%; Diameter of clear zone inhibition (Shigella flexneri): 14 mm; IC50 (HepG2; Homo sapiens): 108 ± 5.4 µM
[Mn+2].[O-]c1ccccc1N=Cc1ccc(N2CCOCC2)cc1.[O-]c1ccccc1N=Cc1ccc(N2CCOCC2)cc1.c1ccc(-c2ccccn2)nc1 [(1)] | 11.16 | 18.62 | 30.41 | 37.32 | 42.47 | 62.23% and 58.05% | 10.08 | 17.89 | 28.56 | 34.04 | 44.92 | 56.03 | 46510 | 20050 | 0.954 | -24.5 | 4.651e+12 | 0.287 | 50 | 12 | Inhibition% (Bacillus cereu): 57%; Diameter of clear zone inhibition (Bacillus cereu): 14 mm; Inhibition% (Shigella flexneri): 40%; Diameter of clear zone inhibition (Shigella flexneri): 10 mm; IC50 (HepG2): 36 ± 1.8 µM
[Ni+2].[O-]c1ccccc1N=Cc1ccc(N2CCOCC2)cc1.[O-]c1ccccc1N=Cc1ccc(N2CCOCC2)cc1.c1ccc(-c2ccccn2)nc1 [(3)] | 13.08 | 24.74 | 30.86 | 41.06 | 49.83 | 60.02% | 07.67 | 15.86 | 26.12 | 35.43 | 45.56 | 55.75 | 48060 | 52920 | 1.051 | -26.9 | 4.8055e+12 | 0.348 | 40 | 10 | Inhibition% (Bacillus cereu): 54%; Diameter of clear zone inhibition (Bacillus cereu): 13 mm; Inhibition% (Shigella flexneri): 54%; Diameter of clear zone inhibition (Shigella flexneri): 13 mm; IC50 (HepG2): 33.6 ± 1.7 µM
[Co+2].[O-]c1ccccc1N=Cc1ccc(N2CCOCC2)cc1.[O-]c1ccccc1N=Cc1ccc(N2CCOCC2)cc1.c1ccc(-c2ccccn2)nc1 [(2)] | 14.20 | 26.76 | 31.64 | 45.67 | 52.54 | 62.23% | 08.02 | 15.24 | 26.23 | 36.41 | 46.17 | 56.85 | 70740 | 54550 | 1.018 | -27.0 | 7.074e+12 | 0.385 | 40 | 10 | IC50 [1]: 200 µM; IC50 [2]: 200 µM; Inhibition% (Bacillus cereu): 54%; Diameter of clear zone inhibition (Bacillus cereu): 13 mm; Inhibition% (Shigella flexneri): 33%; Diameter of clear zone inhibition (Shigella flexneri): 09 mm; IC50 (HepG2): 35.9 ± 1.8 µM
